Assay [1] deals with Rattus norvegicus. As to the kind of experiment: Neuroprotective activity against ischemia reperfusion injury in Wistar rat assessed as fibrinogen level at 8 mg/kg, iv by polymerization time method (RVb = 1.45 +/- 0.35 g/L). The format is functional.
The subject of assay [2] is Rattus norvegicus. The assay is described as follows: Neuroprotective activity against ischemia reperfusion injury in Wistar rat assessed as factor 7 level at 4 mg/kg, iv by amidolytic method (RVb = 1.24 +/- 0.34 mg/L). The format is functional.
The subject of assay [3] is Rattus norvegicus. As to the kind of experiment: Antiinflammatory activity in Wistar rat brain assessed as inhibition of ischemia reperfusion injury-induced NF-kappaB nuclear translocation at 2 to 8 mg/kg, iv. The format is functional, organism-based.
For assay [4], the system named is Rattus norvegicus. As to the kind of experiment: Neuroprotective activity against ischemia reperfusion injury in Wistar rat assessed as factor 7 level at 8 mg/kg, iv by amidolytic method (RVb = 1.24 +/- 0.34 mg/L). It is filed as functional.
The test system of assay [5] is Rattus norvegicus. The assay is described as follows: Antiinflammatory activity in Wistar rat assessed as reduction in ischemia reperfusion injury-induced ICAM1 protein expression at 2 to 8 mg/kg, iv by Western blotting. The format is functional, organism-based. In general terms: A western blot detects proteins with antibodies after separation by electrophoresis.
Assay [6] relates to Rattus norvegicus. As to the kind of experiment: Neuroprotective activity against ischemia reperfusion injury in Wistar rat assessed as factor 7 level at 2 mg/kg, iv by amidolytic method (RVb = 1.24 +/- 0.34 mg/L). It is filed as functional.
The test system of assay [7] is Rattus norvegicus. As to the kind of experiment: Antiinflammatory activity in Wistar rat brain assessed as reduction in ischemia reperfusion injury-induced MPO activity at 2 to 8 mg/kg, iv. It is filed as functional, organism-based.
Assay [8] relates to Rattus norvegicus. The assay is described as follows: Neuroprotective activity against ischemia reperfusion injury in Wistar rat assessed as […] 1+2 at 2 mg/kg, iv by enzyme immunoassay (RVb = 1.97 +/- 0.44 ug/L). The format is functional.
Assay [9] concerns Rattus norvegicus. The assay is described as follows: Neuroprotective activity against ischemia reperfusion injury in Wistar rat assessed as fibrinogen level at 4 mg/kg, iv by polymerization time method (RVb = 1.45 +/- 0.35 g/L). The format is functional.
Assay [10] concerns Rattus norvegicus. The assay is described as follows: Antiinflammatory activity in Wistar rat brain assessed as inhibition of ischemia reperfusion injury-induced p65 subunit binding to DNA at 2 to 8 mg/kg, iv by EMSA. It is filed as functional, organism-based. Background: In EMSA bound probe runs differently from free probe, usually more slowly.
The subject of assay [11] is Rattus norvegicus. As to the kind of experiment: Neuroprotective activity against ischemia reperfusion injury in Wistar rat assessed as thrombin-antithrombin complex at 4 mg/kg, iv by enzyme immunoassay (RVb = 3.45 +/- 0.57 ug/L). It is filed as functional.
In assay [12] the test system is Rattus norvegicus. As to the kind of experiment: Neuroprotective activity against ischemia reperfusion injury in Wistar rat assessed as […] 1+2 at 4 mg/kg, iv by enzyme immunoassay (RVb = 1.97 +/- 0.44 ug/L). The format is functional.
Assay [13] relates to Rattus norvegicus. As to the kind of experiment: Neuroprotective activity against ischemia reperfusion injury in Wistar rat hippocampal formation assessed as reduction in prothrombin mRNA level at 2 to 8 mg/kg, iv. It is filed as functional, organism-based. The settings on record: Hippocampus.
In assay [14] the test system is Rattus norvegicus. The assay is described as follows: Neuroprotective activity against ischemia reperfusion injury in Wistar rat assessed as fibrinogen level at 2 mg/kg, iv by polymerization time method (RVb = 1.45 +/- 0.35 g/L). The format is functional.
In assay [15] the test system is Rattus norvegicus. As to the kind of experiment: Neuroprotective activity against ischemia reperfusion injury in Wistar rat assessed as thrombin-antithrombin complex at 2 mg/kg, iv by enzyme immunoassay (RVb = 3.45 +/- 0.57 ug/L). The format is functional.
For assay [16], the system named is Rattus norvegicus. As to the kind of experiment: Neuroprotective activity in Wistar rat assessed as ischemia reperfusion injury-induced plasma angiotensin level at 2 to 8 mg/kg, iv by radioimmunoassay. The format is functional, organism-based.
Assay [17] relates to Rattus norvegicus. As to the kind of experiment: Neuroprotective activity against ischemia reperfusion injury in Wistar rat assessed as thrombin-antithrombin complex at 8 mg/kg, iv by enzyme immunoassay (RVb = 3.45 +/- 0.57 ug/L). The format is functional.
Assay [18] concerns Rattus norvegicus. As to the kind of experiment: Neuroprotective activity against ischemia reperfusion injury in Wistar rat assessed as […] 1+2 at 8 mg/kg, iv by enzyme immunoassay (RVb = 1.97 +/- 0.44 ug/L). It is filed as functional.
In assay [19] the test system is Rattus norvegicus. The assay is described as follows: Antiinflammatory activity in Wistar rat hippocampus assessed as reduction in ischemia reperfusion injury-induced IkappaB alpha protein expression at 2 to 8 mg/kg, iv by Western blotting. The format is functional, organism-based.
Assay [20] concerns Rattus norvegicus. The assay is described as follows: Antiinflammatory activity in Wistar rat assessed as reduction in ischemia reperfusion injury-induced ICAM1 mRNA expression at 2 to 8 mg/kg, iv by RT-PCR. It is filed as functional, organism-based.

Calls of active or inactive are those of the source. The calls are words filed in the database; no cut-off is given here.

Regarding `O=C(/C=C/c1ccc(O)cc1)C1=C(O)C(O)([C@@H]2O[C@H](CO)[C@@H](O)[C@H](O)[C@H]2O)C(O)=C([C@@H]2O[C@H](CO)[C@@H](O)[C@H](O)[C@H]2O)C1=O` (stereo not given in full) [HYDROXYSAFFLOR YELLOW A], the Activity in assay [1] came out at 1.55 g/L; in assay [2], 1.19 mg/L; in assay [4], 1.01 mg/L; in assay [6], 1.21 mg/L; in [8], 1.38 µg/L; in assay [9], 1.9 g/L. In addition, the Activity in assay [11] came to 1.89 µg/L; in assay [12], 0.8 µg/L; in [14], 2.06 g/L; in [15], 2.39 µg/L; in assay [17] it was 1.48 µg/L; in assay [18] it was 0.54 µg/L. Also, the outcome in assay [3], in assay [5], in assay [7], in [10], in assay [13] and in [16] was Active. In addition, the result in assay [19] and in assay [20] was Active.

Source of the values: ChEMBL document CHEMBL1177812, “Hydroxysafflor Yellow A suppresses thrombin generation and inflammatory responses following focal cerebral ischemia-reperfusion in rats” (2010).
